≈ marks a conversion by molar mass, not a printed value. Where two headings read alike, the source gives them in different places.
Assays:
[1] = tested on: Pseudo. aeruginosa 104; test: In vitro MIC, Pseudo. aeruginosa 104; type: cell-based, Pseudomonas aeruginosa; details: unit assumed
Text: (§1) The in vitro spectra of a number of 6-[α-(ω-guanidinoalkanoylamido)acylamido]penicillanic acids of this invention against certain gram-negative bacteria are presented in Table I below. […] Th compounds of Table I have the formula

[2] = tested on: E. coli; test: PD50 versus acute systemic E. coli infection in mice; type: in vivo; details: for ED50: Escherichia coli, 96 h, E. coli, mice
Text: (§2) Additionally, the compounds of this invention are active versus gram-positive and gram-negative bacteria in vivo via the parenteral route of administration in animals, including man. Their in vivo activity in animals, including man, by the oral route of administration is more limited as regards susceptible organisms. Nevertheless, oral in vivo activity against Escherichia coli and Staphylococcus aureus is a common property of many compounds of this invention. Table II below presents the comparative in vivo spectra of several compounds within the scope of this invention against D-α-aminobenzylpenicillin (Ampicillin).
(§3) The acute systemic infections in mice were produced by the intraperitoneal inoculation of standardized cultures suspended in 5% hog gastric mucin. Treatment with the drugs was initiated 0.5 hours after inoculation of the infecting organism. A second dose was administered 4 hours later. The PD50 values were calculated after a hold period of 4 days.

[3] = tested on: P. aeruginosa; test: PD50 versus acute systemic P. aeruginosa infection in mice; type: in vivo; details: mice; for ED50: Pseudomonas aeruginosa, 96 h, P. aeruginosa, read-out: PD50
Text: as §2, §3

[4] = in vivo; details: dog, im, 25 mg/kg
[5] = tested on: Proteus mirabilis C015; test: In vitro MIC, Proteus mirabilis C015; type: cell-based; details: unit assumed
Text: as §1

[6] = tested on: S. aureus; test: PD50 versus acute systemic S. aureus infection in mice; type: in vivo; details: for ED50: Staphylococcus aureus, 96 h, S. aureus, mice
Text: as §2, §3

[7] = tested on: E. coli 266; test: In vitro MIC, E. coli 266, two-fold serial dilution; type: cell-based, Escherichia coli; details: unit assumed
Text: as §1

[8] = tested on: Proteus vulgaris A059; test: In vitro MIC, Proteus vulgaris A059; type: cell-based; details: unit assumed
Text: as §1

[9] = tested on: Serratia marcescens A001; test: In vitro MIC, Serratia marcescens A001; type: cell-based; details: unit assumed
Text: as §1

[10] = tested on: Pseudo. aeruginosa 490; test: In vitro MIC, Pseudo. aeruginosa 490; type: cell-based, Pseudomonas aeruginosa; details: unit assumed
Text: as §1

[11] = tested on: Pseudo. aeruginosa 173; test: In vitro MIC, Pseudo. aeruginosa 173; type: cell-based, Pseudomonas aeruginosa; details: unit assumed
Text: as §1

[12] = tested on: Escherichia coli 266; test: In vivo protection of mice versus Escherichia coli 266; details: Escherichia coli, 266, sc, 96 h; 50 mg./kg., mice, subcutaneous route; read-out: % Protection
Text: as §2, §3

CC1(C)S[C@@H]2[C@H](NC(=O)[C@H](NC(=O)NC(=N)N)c3ccccc3)C(=O)N2[C@H]1C(=O)O [B, 6-[D-2-phenyl-2-(3-guanylureido)acetamido]penicillanic acid]
MIC [1]: 2.5 µg/mL (≈ 5.75 µM) | ED50 ([2]; oral): > 200 mg/kg | ED50 ([2]; sc, subcutaneous): 15 ± 6.5 mg/kg | in vivo oral activity against E. coli (in words) ([2]; oral): lacks oral activity | ED50 ([3]; oral): > 200 mg/kg | ED50 ([3]; sc, subcutaneous): 41 ± 13 mg/kg | activity against Pseudomonas aeruginosa (in words) ([3]; in vivo): active | concentration at 0.5 h [4]: 3500 ng/mL | concentration at 1 h [4]: 3600 ng/mL | concentration at 2 h [4]: 800 ng/mL | MIC [5]: 0.78 µg/mL (≈ 1.8 µM) | ED50 ([6]; oral): > 100 mg/kg | ED50 ([6]; sc, subcutaneous): 18 ± 9.8 mg/kg | in vivo oral activity against S. aureus (in words) ([6]; oral): lacks oral activity | MIC [7]: 3.1 µg/mL (≈ 7.13 µM) | MIC [8]: 1.56 µg/mL (≈ 3.59 µM) | MIC [9]: 6.25 µg/mL (≈ 14.4 µM) | MIC [10]: 1.5 µg/mL (≈ 3.45 µM) | MIC [11]: 1.5 µg/mL (≈ 3.45 µM) | responders at 50 mg/kg [12]: 100%

— patent US3972872A, “6-[α-(ω-Guanidinoalkanoylamido)acylamido]penicillanic acids” (Pfizer Inc., priority 1975, dated 1976)
